Laboratory results from DBAASP.
Values after ≈ are worked out from the molar mass of the structure shown.

Key:
Assay in all cases: ≥ marks a high value that may be exact or a test limit, other limits are often not marked, values filed in µg/mL are converted to µM
Vibrio cholerae = tested on: Vibrio cholerae
[1] = tested on: Staphylococcus aureus ATCC 43300
[2] = tested on: Pseudomonas aeruginosa ATCC 27853
Escherichia coli MG1655 = tested on: Escherichia coli MG1655
[3] = tested on: Bacillus subtilis MTCC 14416
[4] = tested on: Staphylococcus aureus MTCC 9542
[5] = tested on: Enterococcus faecalis ATCC 29212
[6] = tested on: Escherichia coli ATCC 25922
Aureobasidium pullulans = tested on: Aureobasidium pullulans
[7] = tested on: Staphylococcus aureus ATCC 9144
[8] = tested on: Corynebacterium glutamicum ATCC 13032
[9] = tested on: Candida albicans ATCC 10231
[10] = tested on: Bacillus subtilis ATCC 23857
Micrococcus luteus = tested on: Micrococcus luteus
Bacillus megaterium = tested on: Bacillus megaterium
[11] = tested on: Staphylococcus aureus ATCC 12600
[12] = tested on: Micrococcus luteus ATCC 49732
[13] = tested on: Escherichia coli ATCC 11775
[14] = tested on: Candida albicans ATCC 14053

Question: With `CC[C@H](C)[C@@H]1NC(=O)[C@H](CCCCN)NC(=O)[C@@H](NC(=O)[C@H](CC(C)C)NC(=O)[C@@H](NC(=O)[C@H](CCC(N)=O)NC(=O)[C@@H]2CCCN2C(=O)[C@H](CC(C)C)NC(=O)[C@H](Cc2ccccc2)NC(=O)[C@H](CC(N)=O)NC(=O)[C@H](C)NC(=O)[C@H](C)NC(=O)[C@H](CC(C)C)NC(=O)CNC(=O)[C@H](C)NC(=O)[C@@H](NC(=O)[C@@H](N)Cc2cnc[nH]2)[C@@H](C)CC)[C@@H](C)CC)CSSC[C@@H](C(N)=O)NC(=O)[C@H](CCCCN)NC(=O)[C@H](CCCN=C(N)N)NC(=O)[C@H](C)NC1=O` [HIAGLAANFLPQILCKIARKC] as the compound, how does the MIC (Vibrio cholerae) read?
Answer: The MIC was 11 µM (≈ 25 µg/mL).

Question: What about the MIC [1] of the same compound?
Answer: The MIC was 43.8 µM (≈ 99.9 µg/mL).

Question: And the MIC [2]?
Answer: The MIC was > 43.8 µM.

Question: What about the MIC (Escherichia coli MG1655) of the same compound?
Answer: Its MIC is 21.9 µM (≈ 49.9 µg/mL).

Question: What about the MIC [3] of the same compound?
Answer: The MIC was 21.9 µM (≈ 49.9 µg/mL).

Question: And the MIC [4]?
Answer: Its MIC is ≥ 43.8 µM.

Question: With `CC[C@H](C)[C@H](N)C(=O)N[C@@H](C)C(=O)NCC(=O)N[C@@H](CC(C)C)C(=O)N[C@@H](C)C(=O)N[C@@H](C)C(=O)N[C@@H](CC(N)=O)C(=O)N[C@@H](Cc1ccccc1)C(=O)N[C@@H](CC(C)C)C(=O)N1CCC[C@H]1C(=O)N[C@@H](CCC(N)=O)C(=O)N[C@H](C(=O)N[C@@H](CC(C)C)C(=O)N[C@H]1CSSC[C@@H](C(N)=O)NC(=O)[C@H](CCCCN)NC(=O)[C@H](CCCN=C(N)N)NC(=O)[C@H](C)NC(=O)[C@H]([C@@H](C)CC)NC(=O)[C@H](CCCCN)NC1=O)[C@@H](C)CC` [IAGLAANFLPQILCKIARKC] as the compound, how does the MIC (Vibrio cholerae) read?
Answer: Its MIC is 11.7 µM (≈ 25 µg/mL).

Question: And the MIC [1]?
Answer: Its MIC is > 46.6 µM.

Question: What about the MIC [2] of the same compound?
Answer: Its MIC is > 46.6 µM.

Question: What about the MIC (Escherichia coli MG1655) of the same compound?
Answer: Its MIC is 23.3 µM (≈ 49.9 µg/mL).

Question: What about the MIC [3] of the same compound?
Answer: Its MIC is ≥ 46.6 µM.

Question: And the MIC [4]?
Answer: The MIC was 11.7 µM (≈ 25 µg/mL).

Question: What does the source list for `CC[C@H](C)[C@@H]1NC(=O)[C@H](CCCCN)NC(=O)[C@@H](NC(=O)[C@H](CC(C)C)NC(=O)[C@@H](NC(=O)[C@H](CCC(N)=O)NC(=O)[C@@H]2CCCN2C(=O)[C@H](CC(C)C)NC(=O)[C@H](Cc2ccccc2)NC(=O)[C@H](CC(N)=O)NC(=O)[C@H](C)NC(=O)[C@H](C)NC(=O)[C@H](CC(C)C)NC(=O)CNC(=O)[C@H](C)NC(=O)[C@@H](NC(=O)[C@@H](N)CCCCN)[C@@H](C)CC)[C@@H](C)CC)CSSC[C@@H](C(N)=O)NC(=O)[C@H](CCCCN)NC(=O)[C@H](CCCN=C(N)N)NC(=O)[C@H](C)NC1=O` [KIAGLAANFLPQILCKIARKC]?
Answer: MIC (Vibrio cholerae): 11 µM (≈ 25 µg/mL); MIC [1]: > 44 µM; MIC [2]: > 44 µM; MIC (Escherichia coli MG1655): 11 µM (≈ 25 µg/mL); MIC [5]: 22 µM (≈ 49.9 µg/mL); MIC [3]: ≥ 44 µM; MIC [4]: 5.5 µM (≈ 12.5 µg/mL)

Question: What does the source list for `CC(C)[C@H](NC(=O)[C@H](CCCCN)NC(=O)[C@H](C)NC(=O)[C@@H](NC(=O)[C@@H](NC(=O)[C@H](C)NC(=O)[C@H](CCCN=C(N)N)NC(=O)[C@H](Cc1c[nH]c2ccccc12)NC(=O)[C@H](Cc1c[nH]c2ccccc12)NC(=O)CN)[C@@H](C)O)C(C)C)C(=O)N[C@@H](CCCN=C(N)N)C(=O)N[C@@H](CCCCN)C(N)=O` [GWWRATVAKVRK]?
Answer: MIC [2]: 25 µM (≈ 36.4 µg/mL); MIC [6]: 6.3 µM (≈ 9.18 µg/mL); MIC (Aureobasidium pullulans): 25 µM (≈ 36.4 µg/mL); MIC [7]: ≥ 100 µM; MIC [8]: 0.8 µM (≈ 1.17 µg/mL); MIC [9]: 25 µM (≈ 36.4 µg/mL)

Question: How did the MIC [10] turn out when `CC(C)C[C@H](NC(=O)[C@H](CC(C)C)NC(=O)[C@H](CC(C)C)NC(=O)[C@@H]1CCCN1C(=O)[C@H](CCCN=C(N)N)NC(=O)[C@H](CCCN=C(N)N)NC(=O)CN)C(=O)N[C@@H](CCCN=C(N)N)C(=O)N[C@@H](C)C(=O)N[C@@H](CCCN=C(N)N)C(N)=O` [GRRPLLLRAR] was run?
Answer: The MIC was ≥ 207 µM.

Question: And the MIC [2]?
Answer: The MIC was > 207 µM.

Question: What about the MIC [6] of the same compound?
Answer: Its MIC is > 207 µM.

Question: What about the MIC (Micrococcus luteus) of the same compound?
Answer: Its MIC is ≥ 51.8 µM.

Question: What about the MIC (Bacillus megaterium) of the same compound?
Answer: The MIC was 6.46 µM (≈ 7.79 µg/mL).

Question: And the MIC (Aureobasidium pullulans)?
Answer: Its MIC is ≥ 207 µM.

Question: What about the MIC [7] of the same compound?
Answer: The MIC was ≥ 207 µM.

Question: And the MIC [8]?
Answer: The MIC was 25.9 µM (≈ 31.3 µg/mL).

Question: And the MIC [9]?
Answer: Its MIC is 104 µM (≈ 125 µg/mL).

Question: What does the source list for `CC(C)[C@H](NC(=O)[C@H](C)NC(=O)[C@@H](NC(=O)[C@H](C)NC(=O)[C@@H]1CCCN1)[C@@H](C)O)C(=O)N[C@@H](Cc1ccccc1)C(=O)N[C@@H](CCCCN)C(=O)O` [PATAVFK]?
Answer: MIC [11]: ≥ 303 µM; MIC [12]: ≥ 910 µM; MIC [13]: ≥ 101 µM; MIC [14]: ≥ 303 µM
